Three compounds from patent US20240368230A1, “CELL-PENETRATING PEPTIDES COMPRISING MULTIPLE 5-MER ALPHA-HELIX FRAGMENTS AND USES THEREOF” (ArtProBio Co., Ltd., priority 2023, published 2024) can be followed below.

Entries after “also recorded” stand apart in the source; their conditions may differ. Read-outs that look alike come from different tables or passages of the source. Where a SMILES comes first, the peptide text is derived from it. Where only a bound is given, the exact number is not on record here.

Data set [1] relates to HeLa cells. Briefly: Flow cytometry cellular uptake efficiency, HeLa. The class given is cell-based. The protocol: (§1) After washing with PBS, the cells were treated with the fluorescence-labeled peptide (sample) for 4 hours. Then, after washing twice with PBS, the cells were incubated with trypsin (1 mg/mL) for 15 minutes and the peptide bound to the cell surface was removed. The cells were centrifuged at 1,200 rpm for 5 minutes, washed twice with PBS and then suspended in a PBS buffer containing 10% non-enzymatic cell dissociation solution. The fluorescence intensity of the internalized peptide was measured using a BD LSR II flow cytometer (BD Biosciences, USA).
(§2) The cell-penetrating peptides (CPP10, CPP11 and Tat) were labeled with FAM (5 (6)-carboxyfluorescein) at the N-terminal. MFI stands for mean fluorescence intensity. Untreated cells were used as control groups (cell only). The cellular uptake efficiency refers to the degree of penetration into cells.
Flow cytometry was performed after treating Hela cells with the cell-penetrating peptide prepared in Example 11 (CPP11) of different concentrations (4 μM, 30 μM, 60 μM, 90 μM, 120 μM, 270 μM and 500 μM).
(In flow cytometry, cells or beads pass a laser one at a time.)

Data set [2] concerns HCT116 cells. Briefly: Flow cytometry cellular uptake efficiency, HCT116. The class given is cell-based. The settings on record: HCT116, 30 μM, 4 hours, FAM-labeled, MFI. As for the experimental part:
as §1, §2

Data set [3] relates to 293T cells. Briefly: Flow cytometry cellular uptake efficiency, 293T. The class given is cell-based. The settings on record: 30 μM, 4 hours, FAM-labeled, MFI. The protocol:
as §1, §2

Data set [4] concerns HeLa cells. The data set can be described thus: Cellular localization by CLSM. The class given is cell-based. The settings on record: 10 μM FAM-labeled, 2 hours, DAPI. The protocol:
A DMEM medium containing 10% FBS and an 8-well Lab-Tek II chamber slide (Thermo Fisher Scientific, USA) were prepared. […] […] The cultured cells were washed 5 times with PBS. The living cells were visualized using an LSM 880 confocal microscope (Carl Zeiss, Germany).
The cell-penetrating peptides were labeled with FAM.

The test system of data set [5] is BALB/c nude mice. The data set can be described thus: IVIS imaging of extracted organs, head and cochlea after IV injection. The class given is in vivo.
Protocol: After extracting major organs (ear, brain, heart, lung, liver, spleen and kidney) from the euthanized experimental animals, the tissues were imaged using IVIS (in-vivo imaging system) (PerkinElmer, USA) and the images were analyzed with the Living Image software (PerkinElmer).
The test system of data set [6] is BALB/c nude mice. Briefly: In-vivo fluorescence imaging (IVIS) of living mice, targeting. As for the experimental part:
All animal experimental procedures including sample administration and euthanasia were performed in accordance with the strict guidelines of the Yonsei University Health System Institutional Animal Care and Use Committee. Female 7-week BALB/c nude mice were purchased from Orient Bio Company (Korea). Fluorescence-labeled peptide (sample) (10 mg/kg) was injected via the lateral tail vein of the mice. Fluorescence images were acquired at different times (0, 4, 8 and 12 hours) using an in-vivo imaging system (IVIS; PerkinElmer, USA) and the images were analyzed with the Living Image software (PerkinElmer).
Female 7-week-old BALB/c nude mice were injected IV (intravenously) with the cell-penetrating peptide prepared in Example 10 (CPP10) at 10 mg/kg or 1 mg/kg via the lateral tail vein and imaged using IVIS (in-vivo imaging system) (PerkinElmer, USA) 4 hours later. The images were analyzed with the Living Image software (PerkinElmer). The mice were analyzed from the top, bottom (belly) and side positions (FIG. 44A). Then, after administering the same volume of the cell-penetrating peptide prepared in Example 10 (CPP10) at 10 mg/kg via IV (intravenous) or IP (intraperitoneal) injection, the mice were imaged 4 hours later (FIG. 44B).
Next, female 7-week-old BALB/c nude mice were injected IV (intravenously) with the cell-penetrating peptide of Example 10 (CPP10), the cell-penetrating peptide of Example 11 (CPP11) or the cell-penetrating peptide of Example 14 (CPP11d) at 10 mg/kg via the lateral tail vein, and they were imaged 30 minutes and 6 hours later using IVIS (in-vivo imaging system) (PerkinElmer, USA). The images were analyzed with the Living Image software (PerkinElmer) (FIG. 44C). In FIGS. 44A and 44B, the cell-penetrating peptides were labeled with TAMRA (5 (6)-carboxytetramethylrhodamine). In FIG. 44C, the cell-penetrating peptides were labeled with FAM.
The images were analyzed with the Living Image software (PerkinElmer) (FIGS. 50 and 51).
The cell-penetrating peptide prepared in Example 11 (CPP11) was also administered at the same concentration and then analyzed by IVIS 1 hour later (FIG. 51). The cell-penetrating peptide was used after labeling with FAM.
4 hours later, the mice were imaged using IVIS (in-vivo imaging system) (PerkinElmer, USA) and the images were analyzed with the Living Image software (PerkinElmer) (FIG. 53).
The cell-penetrating peptide prepared in Example 11 (CPP11) was also administered at the same concentration and then analyzed by IVIS 1 hour later (FIG. 53). The cell-penetrating peptide was used after labeling with FAM.
Female 7-week-old BALB/c nude mice were injected IV (intravenously) with 200 μL of the cell-penetrating peptide of Example 11 (CPP11) or the existing cell-penetrating peptides (Rev ARM, Tat, penetratin and R8) at 5 mg/kg via the lateral tail vein. 4 hours later, the mice were imaged using IVIS (in-vivo imaging system) (PerkinElmer, USA) and the images were analyzed with the Living Image software (PerkinElmer) (FIGS. 54 and 55). The cell-penetrating peptides were used after labeling with FAM.

Data set [7] is described as follows: CD spectroscopy of cell-penetrating peptides (helicity). The settings on record: for secondary structure / helix stabilization by CD: 10 mM potassium phosphate, pH 7.4, 20° C.
Protocol: The concentration of peptides/proteins was 5-20 μM in general. Spectra were obtained using a Jasco J-1500 CD spectrometer (JASCO, Japan) or a Chirascan CD spectrometer (Applied Photophysics, UK). Scanning was carried out using a cuvette with a path length of 1 mm. MRE (mean residue ellipticity) was calculated per amino acid residue.
The cell-penetrating peptides (CPP1 TO 13 and CPP11d) were dissolved respectively in 10 mM potassium phosphate. The analysis was performed under the condition of pH 7.4 and 20° C.
Data set [8] has as its system HeLa cells. The data set can be described thus: Cytotoxicity analysis with WST-8 reagent. The settings on record: 24 hours, various concentrations.
Protocol: (§3) Cytotoxicity was analyzed using the WST-8 (5-(2,4-disulfophenyl)-3-(2-methoxy-4-nitrophenyl)-2-(4-nitrophenyl)-2H-tetrazolium, water-soluble tetrazolium). First, HeLa cells were inoculated onto a 96-well plate (5,000 cells/well) and cultured for 24 hours in a DMEM medium containing 10% FBS. After washing with PBS, the peptide (sample) of various concentrations was added to Opti-MEM. 24 hours later, the WST-8 reagent was added and incubation was conducted for 1 hour. Then, WST-8 formazan was quantified using a Victor X5 multilabel plate reader (Perkin Elmer, USA).
A short description of data set [9]: CD equilibrium thermal unfolding. The settings on record: CD at 4-84° C., two-state coil-helix transition. The class given is physicochemical. As for the experimental part: For the cell-penetrating peptide prepared in Example 11 (CPP11), CD spectra were measured under various temperature conditions (4° C., 20° C., 36° C., 52° C., 68° C. and 84° C.) to analyze thermal stability through equilibrium thermal unfolding.

The subject of data set [10] is IIB RNA. Briefly: UV melting analysis of IIB RNA and cRev-IIB complex. The class given is physicochemical, HIV-1. The settings on record: 260 nm; cRev/IIB ratio 1; IIB RNA only as control. The protocol:
UV melting experiments for free RNA (2 μM) and a protein-RNA complex (1:1 molar ratio) were conducted using an Agilent 8453 diode array UV-Vis spectrophotometer equipped with a Peltier temperature controller. Spectra were measured at 260 nm using a cuvette with a path length of 1 cm under the heating rate condition of 2° C./min. The measurement was repeated 3 times and the average was taken. Prior to the measurement, the RNA sample was heated at 90° C. for 2 minutes and then annealed on ice. The melting temperature (Tm) was calculated with the Origin software (OriginLab, USA) using a two-state or multi-state model.
A complex (cRev-IIB complex) was prepared by mixing the cRev prepared in Preparation Example 2 with IIB RNA and UV melting experiment was performed. The cRev/IIB ratio was 1. For the control group (IIB RNA only), only IIB RNA was used without cRev.

The test system of data set [11] is HeLa cells.
Protocol: as §3
Setting [12] is: extracted organs, IV 10 mg/kg, 4 hours.

For the compound `C[C@H](NC(=O)[C@H](CCC(N)=O)NC(=O)C(C)(C)NC(=O)[C@H](C)NC(=O)C(C)(C)NC(=O)[C@H](CC(N)=O)NC(=O)[C@H](CCCNC(=N)N)NC(=O)[C@H](CCCNC(=N)N)NC(=O)[C@H](C)NC(=O)[C@H](CCC(N)=O)NC(=O)C(C)(C)NC(=O)[C@H](C)NC(=O)C(C)(C)NC(=O)[C@H](CC(N)=O)NC(=O)[C@H](CCCNC(=N)N)NC(=O)[C@H](CCCNC(=N)N)NC(=O)[C@H](C)NC(=O)[C@H](CCC(N)=O)NC(=O)C(C)(C)NC(=O)[C@H](C)NC(=O)C(C)(C)NC(=O)[C@H](CC(N)=O)NC(=O)[C@H](CCCNC(=N)N)NC(=O)[C@H](CCCNC(=N)N)NC(=O)[C@H](C)NC(=O)[C@H](CCC(N)=O)NC(=O)C(C)(C)NC(=O)[C@H](C)NC(=O)C(C)(C)N)C(=O)N[C@@H](CCCNC(=N)N)C(=O)N[C@@H](CCCNC(=N)N)C(=O)N[C@@H](CC(N)=O)C(=O)NC(C)(C)C(=O)N[C@@H](C)C(=O)NC(C)(C)C(N)=O` [CPP11] (HELM PEPTIDE1{[Aib].A.[Aib].Q.A.R.R.N.[Aib].A.[Aib].Q.A.R.R.N.[Aib].A.[Aib].Q.A.R.R.N.[Aib].A.[Aib].Q.A.R.R.N.[Aib].A.[Aib].[am]}$$$$V2.0; N-terminus assumed), in data set [1] (HeLa, 30 μM, 4 hours, FAM-labeled, MFI), the “cellular uptake efficiency relative to Tat” value is given as at least 4 times. Further, the “MFI / uptake efficiency versus concentration” value in data set [1] (Hela cells, 4-500 μM) is on record as “uptake efficiency increases gradually with the concentration”. Besides, the “cellular uptake efficiency relative to Tat” value in [2] is at least 4 times. Further, in data set [3], the “cellular uptake efficiency relative to Tat” value is reported as at least 4 times. The cellular localization result in data set [4] is “mainly located outside the nucleus”. The “time to accumulation in the ear” value in [5] (IV 10 mg/kg) is at most 4 h. Also, the excretion route entry in data set [5] (IV 10 mg/kg, 4 hours) was “excreted out of the body through the liver and kidneys”. In addition, in data set [5] (IV 10 mg/kg, 4 hours, versus PBS, 10 mg/kg), the “accumulation in the head (outside and inside)” value is recorded as “accumulated effectively in the facial area, especially in the ear, in large quantities; also recorded: accumulated deeply not only in the ear but also in the nose”. In data set [5] (setting [12]), the “accumulation in heart, lung and spleen” value was “not accumulated in the heart, lung and spleen tissues”; the “accumulation rate in the brain” value was “very low”; the main target organ result was “targets mainly the ear”. In addition, the “accumulation in the inner ear (cochlea)” value in data set [5] (separated cochlea, IV, versus PBS (w/o treatment)) is “significantly remarkable accumulation in the inner ear (cochlea)”. In addition, in data set [6] (FAM-labeled, IV 5 mg/kg, 1 hour, compared with CPP14, 15 and 17), the “accumulation efficiency in the ear” value was “much higher accumulation efficiency in the ear”. Also, the bioaccumulation result in data set [6] (FAM-labeled, IV 5 mg/kg, 4 hours, comparison with existing CPPs) is on record as “accumulated in the ear tissue at a significantly high level”. Also, in data set [6] (FAM-labeled, IV 10 mg/kg, 30 minutes and 6 hours), the in-vivo targeting site result was “targeted the ear”. Moreover, in data set [7], the “secondary structure / helix stabilization by CD” value was “perfect α-helical structure”. The “dependence of [θ]222/[θ]208 on concentration” value in data set [7] (5-200 μM, 20° C.) was “not affected by concentration”. In data set [8], the “cytotoxicity (WST-8)” value is recorded as “hardly show cytotoxicity”. Also, the “melting temperature (CD thermal unfolding)” value in data set [9] was determined as 39.4 °C.

Regarding “GGACCUGGUAUGGGCGCAGCGCAAGCUGACGGUACAGGCCAGGUCC (listed as RNA, chemistry not given here) [IIB RNA, stem-loop IIB region of HIV-1 RRE RNA]”, the “Tm (UV melting)” value in data set [10] was determined as 60.6 °C.

As to “UaUgarrnUaUqarrnUaUqarrnUaUqarrnUaU [CPP11d]”, in data set [6] (mouse, in vivo, iv, 10 mg/kg), the in-vivo targeting site entry is “targeted the ear”. Also, the “secondary structure / helix stabilization by CD” value in data set [7] is on record as “perfect left-handed helical conformation”. In addition, the “cytotoxicity (WST-8)” value in data set [11] is reported as “hardly show cytotoxicity”.
